Values quoted from earlier work, collected in US7074553B2, “Retrovirus associated with myelodysplastic syndromes and uses thereof” (Rush University Medical Center, priority 2000, dated 2006).

Test system: anemia and thrombocytopenia of MDS patients
Conditions: administered as single agents

Molecule	improvement of the anemia and the thrombocytopenia
granulocyte-macrophage colony-stimulating factor [GM-CSF]	rarely improves
G-CSF: colony-stimulating growth factor designed to stimulate proliferation of hematopoietic progenitors (protein, UniProt P09919 31-207, looked up) Granulocyte …: TPLGPASSLPQSFLLKCLEQVRKIQGDGAALQEKLVSECATYKLCHPEELVLLGHSLGIPWAPLSSCPSQALQLAGCLSQLHSGLFLYQGLLQALEGISPELGPTLDTLQLDVADFATTIWQQMEELGMAPALQPTQGAMPAFASAFQRRAGGVLVASHLQSFLEVSYRVLRHLAQP	rarely improves
